From patent publication US20250236608A1, “EGFR INHIBITORS” (Blueprint Medicines Corporation, priority 2022, published 2025)
Counter-ions that a name gives are not always drawn.

Tests used:
EGFR L858R = EGFR L858R (Homo sapiens (Human), UniProt P00533, L858R); experiment: Biochemical EGFR inhibition assay, EGFR L858R; settings: Caliper mobility shift; 1.0 mM ATP or ATP Km; read-out: Enz EGFR_L858R IC50
EGFR (d746-750) = EGFR (d746-750) (Homo sapiens (Human), UniProt P00533, DEL746-750); experiment: Biochemical EGFR inhibition assay, EGFR (d746-750); settings: Caliper mobility shift; 1.0 mM ATP or ATP Km; read-out: Enz EGFR_Exon19-del746-750 IC50
[1] = target: pEGFR (Tyr1068) in PC-9 cells (Ex19Del) (Homo sapiens (Human), UniProt P00533, DEL746-750); experiment: PC-9 pEGFR AlphaLISA assay; type: cell-based; settings: 4 hours incubation, p-EGFR (Tyr1068) AlphaLISA, read-out: Ext pEGFR_PC-9 Ex19Del IC50
How it was run: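 Cells seeded in phenol-free DMEM with 10% FBS adhered overnight at 37° C./5% CO2, then were exposed for 4 hours to a 4-fold, 10-point compound dilution series. After lysis, phospho-EGFR was read by AlphaLISA SureFire Ultra, and IC50 was fitted from percent inhibition versus log concentration.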

Chain of EGFR (d746-750) (P00533 other isoform, or with tags, fused parts or gaps del 1-694/del 746-750 limits assumed): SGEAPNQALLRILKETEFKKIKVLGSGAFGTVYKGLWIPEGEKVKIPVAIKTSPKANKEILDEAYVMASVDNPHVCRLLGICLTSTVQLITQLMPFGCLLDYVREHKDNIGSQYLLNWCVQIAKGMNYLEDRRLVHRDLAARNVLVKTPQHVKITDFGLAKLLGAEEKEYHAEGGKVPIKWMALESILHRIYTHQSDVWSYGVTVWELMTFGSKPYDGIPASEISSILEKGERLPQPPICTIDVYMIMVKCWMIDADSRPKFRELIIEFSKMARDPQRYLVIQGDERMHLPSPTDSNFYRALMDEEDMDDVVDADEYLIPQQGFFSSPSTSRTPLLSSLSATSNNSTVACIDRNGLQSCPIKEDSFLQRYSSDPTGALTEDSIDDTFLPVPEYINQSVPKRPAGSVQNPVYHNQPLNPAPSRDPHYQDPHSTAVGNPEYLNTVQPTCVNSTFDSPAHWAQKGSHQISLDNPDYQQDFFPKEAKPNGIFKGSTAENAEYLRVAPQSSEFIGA
Chain of EGFR L858R (P00533 25-1210 L858R): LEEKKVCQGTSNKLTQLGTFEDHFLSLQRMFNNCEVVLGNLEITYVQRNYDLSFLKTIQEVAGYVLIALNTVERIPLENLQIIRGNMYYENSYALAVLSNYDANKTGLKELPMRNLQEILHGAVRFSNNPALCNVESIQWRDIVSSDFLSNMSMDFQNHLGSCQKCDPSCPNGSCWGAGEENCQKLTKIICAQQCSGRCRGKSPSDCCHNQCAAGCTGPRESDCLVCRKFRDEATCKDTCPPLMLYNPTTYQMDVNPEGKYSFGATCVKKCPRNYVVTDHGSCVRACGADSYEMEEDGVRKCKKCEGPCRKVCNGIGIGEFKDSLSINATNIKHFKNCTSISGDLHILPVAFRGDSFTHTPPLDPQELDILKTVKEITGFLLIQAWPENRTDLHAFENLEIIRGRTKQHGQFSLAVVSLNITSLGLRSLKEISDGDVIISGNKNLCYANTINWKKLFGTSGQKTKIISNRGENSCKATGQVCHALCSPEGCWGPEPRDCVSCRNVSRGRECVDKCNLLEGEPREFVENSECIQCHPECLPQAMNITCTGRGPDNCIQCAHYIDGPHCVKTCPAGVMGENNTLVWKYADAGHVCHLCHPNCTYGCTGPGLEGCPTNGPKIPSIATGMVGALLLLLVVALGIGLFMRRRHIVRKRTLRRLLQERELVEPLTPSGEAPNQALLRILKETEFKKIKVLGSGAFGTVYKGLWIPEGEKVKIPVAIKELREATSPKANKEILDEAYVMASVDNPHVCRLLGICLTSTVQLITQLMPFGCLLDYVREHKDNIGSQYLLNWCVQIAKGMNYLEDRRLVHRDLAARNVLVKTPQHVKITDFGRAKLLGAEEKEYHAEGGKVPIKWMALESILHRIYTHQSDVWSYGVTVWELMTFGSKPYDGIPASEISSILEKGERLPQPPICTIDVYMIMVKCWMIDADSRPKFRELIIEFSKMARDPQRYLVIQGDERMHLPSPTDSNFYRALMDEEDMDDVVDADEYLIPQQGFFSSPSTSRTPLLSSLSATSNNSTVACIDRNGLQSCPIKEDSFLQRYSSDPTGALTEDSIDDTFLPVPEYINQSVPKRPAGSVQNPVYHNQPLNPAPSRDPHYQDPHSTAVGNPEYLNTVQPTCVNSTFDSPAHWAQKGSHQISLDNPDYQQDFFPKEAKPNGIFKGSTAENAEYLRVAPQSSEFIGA
Chain of pEGFR (Tyr1068) in PC-9 cells (Ex19Del) (P00533 other isoform, or with tags, fused parts or gaps del 746-750): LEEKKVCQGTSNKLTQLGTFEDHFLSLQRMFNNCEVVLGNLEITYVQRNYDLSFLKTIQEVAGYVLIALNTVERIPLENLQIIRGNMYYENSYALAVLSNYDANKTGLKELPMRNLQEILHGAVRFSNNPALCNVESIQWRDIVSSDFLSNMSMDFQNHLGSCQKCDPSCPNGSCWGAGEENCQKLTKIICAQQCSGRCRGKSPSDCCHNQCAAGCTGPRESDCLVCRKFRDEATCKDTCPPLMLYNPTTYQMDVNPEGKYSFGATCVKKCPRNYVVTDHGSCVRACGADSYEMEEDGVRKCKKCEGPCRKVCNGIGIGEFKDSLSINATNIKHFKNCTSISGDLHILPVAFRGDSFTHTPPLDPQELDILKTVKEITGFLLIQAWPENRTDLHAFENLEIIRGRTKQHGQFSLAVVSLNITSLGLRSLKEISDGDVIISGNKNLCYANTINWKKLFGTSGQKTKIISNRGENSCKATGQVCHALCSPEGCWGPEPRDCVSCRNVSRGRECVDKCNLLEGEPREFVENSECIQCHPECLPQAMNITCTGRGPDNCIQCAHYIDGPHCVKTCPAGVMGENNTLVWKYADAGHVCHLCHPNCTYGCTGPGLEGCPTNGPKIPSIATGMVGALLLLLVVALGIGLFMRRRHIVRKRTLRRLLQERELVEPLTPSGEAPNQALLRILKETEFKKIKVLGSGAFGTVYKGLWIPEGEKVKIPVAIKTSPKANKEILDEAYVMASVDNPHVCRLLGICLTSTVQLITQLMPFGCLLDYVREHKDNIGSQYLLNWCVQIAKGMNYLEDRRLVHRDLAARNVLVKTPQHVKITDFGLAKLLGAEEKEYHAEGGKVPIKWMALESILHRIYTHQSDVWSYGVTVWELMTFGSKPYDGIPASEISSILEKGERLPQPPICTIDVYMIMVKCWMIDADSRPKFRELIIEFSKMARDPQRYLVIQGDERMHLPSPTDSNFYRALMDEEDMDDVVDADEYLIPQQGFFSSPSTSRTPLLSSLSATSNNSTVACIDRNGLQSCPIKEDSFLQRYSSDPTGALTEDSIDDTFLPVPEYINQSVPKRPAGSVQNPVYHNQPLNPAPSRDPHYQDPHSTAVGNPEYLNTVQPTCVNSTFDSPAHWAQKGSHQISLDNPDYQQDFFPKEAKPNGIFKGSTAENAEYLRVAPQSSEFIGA

Row | Structure (SMILES) | IC50 (EGFR L858R) [nM] | IC50 (EGFR (d746-750)) [nM] | IC50 [1] [nM]
1 | COc1cc2ncnc(-c3cn(C)nc3-c3ccccc3)c2nc1O[C@H](C)c1nnc(C)s1 (single isomer, unassigned) [Example 52, (R)-2-(1-((7-methoxy-4-(1-methyl-3-phenyl-1H-pyrazol-4-yl)pyrido[3,2-d]pyrimidin-6-yl)oxy)ethyl)-5-methyl-1,3,4-thiadiazole or (S)-2-(1-((7-methoxy-4-(1-methyl-3-phenyl-1H-pyrazol-4-yl)pyrido[3,2-d]pyrimidin-6-yl)oxy)ethyl)-5-methyl-1,3,4-thiadiazole] | 12.3 | 2.7 | 6.3
2 | COc1cc2ncnc(-c3cn(C)nc3-c3ccccc3)c2nc1OC(C)c1nnc(C)o1 (stereo not drawn) [Example 27, 2-(1-((7-methoxy-4-(1-methyl-3-phenyl-1H-pyrazol-4-yl)pyrido[3,2-d]pyrimidin-6-yl)oxy)ethyl)-5-methyl-1,3,4-oxadiazole] | 5.5 | 3 | 8.1
3 | COc1cc2ncnc(-c3cn(C)nc3-c3ccccc3F)c2nc1NC(=O)[C@]12C[C@H]1CN(C)C2 [Example 374, (1R,5R)—N-(4-(3-(2-fluorophenyl)-1-methyl-1H-pyrazol-4-yl)-7-methoxypyrido[3,2-d]pyrimidin-6-yl)-3-methyl-3-azabicyclo[3.1.0]hexane-1-carboxamide] | 4.3 | 1.4 | 3.6
4 | COc1cc2ncnc(-c3cn(C)nc3-c3ccccc3)c2cc1N1CCC[C@@H](O)C1 [Example 165, (R)-1-(7-methoxy-4-(1-methyl-3-phenyl-1H-pyrazol-4-yl)quinazolin-6-yl)piperidin-3-ol] | 3.4 | 1.7 | 10.2
5 | COc1cc2ncnc(-c3cn(C)nc3-c3ccccc3)c2cc1NC(=O)[C@H](C)N(C)C (single isomer, unassigned) [Example 236, (S)-2-(dimethylamino)-N-(7-methoxy-4-(1-methyl-3-phenyl-1H-pyrazol-4-yl)quinazolin-6-yl) propenamide or (R)-2-(dimethylamino)-N-(7-methoxy-4-(1-methyl-3-phenyl-1H-pyrazol-4-yl)quinazolin-6-yl) propenamide] | 3.8 | 1.4 | 3.9
6 | COc1cc2ncnc(-c3cn(C)nc3-c3ccccc3)c2cc1NC(=O)C12CC(N(C)C)(C1)C2 [Example 341, 3-(dimethylamino)-N-(7-methoxy-4-(1-methyl-3-phenyl-1H-pyrazol-4-yl)quinazolin-6-yl)bicyclo[1.1.1]pentane-1-carboxamide trifluoroacetate] | 6.4 | 3 | 8.3
7 | Cc1ncsc1C(=O)Nc1cc2c(-c3cn(C)nc3-c3ccccc3)ncnc2cc1OCCN(C)C [Example 303, N-(7-(2-(dimethylamino)ethoxy)-4-(1-methyl-3-phenyl-1H-pyrazol-4-yl)quinazolin-6-yl)-4-methylthiazole-5-carboxamide] | 11 | 2.9 | 8.8
8 | COc1cc2ncnc(-c3cn(C)nc3-c3ccccc3)c2cc1NC(=O)c1ccc(F)cn1 [Example 324, 5-fluoro-N-(7-methoxy-4-(1-methyl-3-phenyl-1H-pyrazol-4-yl)quinazolin-6-yl)picolinamide] | 3.8 | 2 | 2.6
9 | Cc1nnc([C@H](C)Oc2nc3c(-c4cn(C)nc4-c4ccccc4)ncnc3cc2OC2CC2)o1 (single isomer, unassigned) [Example 477, 2-[(1R)-1-{[7-cyclopropoxy-4-(1-methyl-3-phenyl-1H-pyrazol-4-yl)pyrido[3,2-d]pyrimidin-6-yl]oxy}ethyl]-5-methyl-1,3,4-oxadiazole or 2-[(1S)-1-{[7-cyclopropoxy-4-(1-methyl-3-phenyl-1H-pyrazol-4-yl)pyrido[3,2-d]pyrimidin-6-yl]oxy}ethyl]-5-methyl-1,3,4-oxadiazole] | 7.7 | 9 | 25
10 | COc1cc2ncnc(-c3cn(CC(F)F)nc3-c3ccccc3)c2nc1NC(=O)[C@H]1CCN1C [Example 391, (R)—N-(4-(1-(2,2-difluoroethyl)-3-phenyl-1H-pyrazol-4-yl)-7-methoxypyrido[3,2-d]pyrimidin-6-yl)-1-methylazetidine-2-carboxamide] | 2.5 | 1.3 | 0.7
11 | CC(C)Oc1cc2ncnc(-c3cn(C)nc3-c3ccccc3)c2cc1OC(=O)N1CCOC[C@H]1C [Example 71, 7-isopropoxy-4-(1-methyl-3-phenyl-1H-pyrazol-4-yl)quinazolin-6-yl (R)-3-methylmorpholine-4-carboxylate] | 4.5 | 2.5 | 6.8
12 | CCOc1cc2ncnc(-c3cn(C4CC4)nc3-c3ccccc3)c2cc1[C@H](C)O (single isomer, unassigned) [Example 112, (S)-1-(4-(1-cyclopropyl-3-phenyl-1H-pyrazol-4-yl)-7-ethoxyquinazolin-6-yl)ethan-1-ol or (R)-1-(4-(1-cyclopropyl-3-phenyl-1H-pyrazol-4-yl)-7-ethoxyquinazolin-6-yl)ethan-1-ol] | 1.9 | 1.2 | 3.8
13 | COc1cc2ncnc(-c3cn(CC(F)F)nc3-c3ccccc3)c2cc1NC(=O)c1cccnc1 [Example 353, N-(4-(1-(2,2-difluoroethyl)-3-phenyl-1H-pyrazol-4-yl)-7-methoxyquinazolin-6-yl)nicotinamide] | 2.3 | 1.3 | 1.6
14 | COc1cc2ncnc(-c3cn(C)nc3-c3ccccc3)c2cc1-c1ccc2c(c1)CN(C)C2=O [Example 137, 5-(7-methoxy-4-(1-methyl-3-phenyl-1H-pyrazol-4-yl)quinazolin-6-yl)-2-methylisoindolin-1-one] | 3.9 | 2.2 | 3.6
15 | COc1cc2ncnc(-c3cn(C)nc3-c3ccccc3F)c2cc1N1CCOCC1 [Example 159, 4-(4-(3-(2-fluorophenyl)-1-methyl-1H-pyrazol-4-yl)-7-methoxyquinazolin-6-yl)morpholine] | 3 | 1.5 | 3.8
16 | COc1cc2ncnc(-c3cn(C)nc3-c3ccccc3)c2nc1OC(=O)N1CCN(C)C[C@@H]1C [Example 55, 7-methoxy-4-(1-methyl-3-phenyl-1H-pyrazol-4-yl)pyrido[3,2-d]pyrimidin-6-yl (S)-2,4-dimethylpiperazine-1-carboxylate] | 5 | 2 | 3.6

Now those with a lower IC50 (EGFR L858R), led by results:

Row | IC50 (EGFR L858R) [nM] | IC50 (EGFR (d746-750)) [nM] | IC50 [1] [nM] | Structure (SMILES)
17 | 1.7 | 0.9 | 1.9 | CCn1cc(-c2ncnc3cc(OC)c(N4CCOCC4)cc23)c(-c2ccccc2)n1 [Example 169, 4-(4-(1-ethyl-3-phenyl-1H-pyrazol-4-yl)-7-methoxyquinazolin-6-yl)morpholine]
18 | 1.5 | 0.9 | 0.6 | COc1cc2ncnc(-c3cn(CC(F)F)nc3-c3ccccc3)c2cc1NC(=O)c1cnc(C)s1 [Example 274, N-(4-(1-(2,2-difluoroethyl)-3-phenyl-1H-pyrazol-4-yl)-7-methoxyquinazolin-6-yl)-2-methylthiazole-5-carboxamide]
19 | 1.4 | 1 | 0.9 | CCC(=O)Nc1cc2c(-c3cn(CC(F)F)nc3-c3ccccc3)ncnc2cc1OC [Example 250, N-(4-(1-(2,2-difluoroethyl)-3-phenyl-1H-pyrazol-4-yl)-7-methoxyquinazolin-6-yl)propionamide]
20 | 1.3 | 0.8 | 5.4 | COc1cc2ncnc(-c3cn(C)nc3-c3ccccc3)c2cc1N [Preparation 190]
21 | 1.3 | 0.6 | 1.2 | COc1cc2ncnc(-c3cn(C)nc3-c3ccccc3)c2nc1O[C@H](C)c1cscn1 (single isomer, unassigned) [Example 49, (R)-4-(1-((7-methoxy-4-(1-methyl-3-phenyl-1H-pyrazol-4-yl)pyrido[3,2-d]pyrimidin-6-yl)oxy)ethyl)thiazole or (S)-4-(1-((7-methoxy-4-(1-methyl-3-phenyl-1H-pyrazol-4-yl)pyrido[3,2-d]pyrimidin-6-yl)oxy)ethyl)thiazole]
22 | 1.3 | 0.7 | 1.2 | CCOc1cc2ncnc(-c3cn(C)nc3-c3ccccc3)c2nc1NC(=O)[C@]12C[C@H]1CN(C)C2 (single isomer, unassigned) [Example 378, (1R,5R)—N-(7-ethoxy-4-(1-methyl-3-phenyl-1H-pyrazol-4-yl)pyrido[3,2-d]pyrimidin-6-yl)-3-methyl-3-azabicyclo[3.1.0]hexane-1-carboxamide or (1S,5S)—N-(7-ethoxy-4-(1-methyl-3-phenyl-1H-pyrazol-4-yl)pyrido[3,2-d]pyrimidin-6-yl)-3-methyl-3-azabicyclo[3.1.0]hexane-1-carboxamide]
23 | 1.2 | 0.8 | 0.8 | COc1cc2ncnc(-c3cn(C)nc3-c3ccccc3)c2cc1NC(=O)c1ccn(C(C)C)n1 [Example 205, 1-isopropyl-N-(7-methoxy-4-(1-methyl-3-phenyl-1H-pyrazol-4-yl)quinazolin-6-yl)-1H-pyrazole-3-carboxamide]
24 | 1.1 | 0.8 | 1.5 | COc1cc2ncnc(-c3cn(C)nc3-c3ccccc3)c2cc1NC(=O)c1ccncc1Cl [Example 190, 3-chloro-N-(7-methoxy-4-(1-methyl-3-phenyl-1H-pyrazol-4-yl)quinazolin-6-yl)isonicotinamide]
25 | 0.7 | 0.6 | 0.4 | CCn1cc(-c2ncnc3cc(-c4cnn(C)c4)ccc23)c(-c2ccccc2)n1 [Example 496]
